Data published in patent US11059815B2, “Synthesis of small molecule histone deacetylase 6 degraders, compounds formed thereby, and pharmaceutical compositions containing them” (Wisconsin Alumni Research Foundation, priority 2018, dated 2021).

Key:
HDAC6 = target: T1, HDAC6 (Homo sapiens, UniProt Q9UBN7); assay: In-cell ELISA of HDAC6 protein level in MM1S cells; assay type: cell-based; settings: 1 nM to 3 μM, 6 h
T1 construct: an in-cell ELISA was used to analyze the HDAC6 content in MM1S cells; endogenous in cells; host or cells: MM1S (ATCC CRL-2974)
T1 sequence (Q9UBN7 1-1215): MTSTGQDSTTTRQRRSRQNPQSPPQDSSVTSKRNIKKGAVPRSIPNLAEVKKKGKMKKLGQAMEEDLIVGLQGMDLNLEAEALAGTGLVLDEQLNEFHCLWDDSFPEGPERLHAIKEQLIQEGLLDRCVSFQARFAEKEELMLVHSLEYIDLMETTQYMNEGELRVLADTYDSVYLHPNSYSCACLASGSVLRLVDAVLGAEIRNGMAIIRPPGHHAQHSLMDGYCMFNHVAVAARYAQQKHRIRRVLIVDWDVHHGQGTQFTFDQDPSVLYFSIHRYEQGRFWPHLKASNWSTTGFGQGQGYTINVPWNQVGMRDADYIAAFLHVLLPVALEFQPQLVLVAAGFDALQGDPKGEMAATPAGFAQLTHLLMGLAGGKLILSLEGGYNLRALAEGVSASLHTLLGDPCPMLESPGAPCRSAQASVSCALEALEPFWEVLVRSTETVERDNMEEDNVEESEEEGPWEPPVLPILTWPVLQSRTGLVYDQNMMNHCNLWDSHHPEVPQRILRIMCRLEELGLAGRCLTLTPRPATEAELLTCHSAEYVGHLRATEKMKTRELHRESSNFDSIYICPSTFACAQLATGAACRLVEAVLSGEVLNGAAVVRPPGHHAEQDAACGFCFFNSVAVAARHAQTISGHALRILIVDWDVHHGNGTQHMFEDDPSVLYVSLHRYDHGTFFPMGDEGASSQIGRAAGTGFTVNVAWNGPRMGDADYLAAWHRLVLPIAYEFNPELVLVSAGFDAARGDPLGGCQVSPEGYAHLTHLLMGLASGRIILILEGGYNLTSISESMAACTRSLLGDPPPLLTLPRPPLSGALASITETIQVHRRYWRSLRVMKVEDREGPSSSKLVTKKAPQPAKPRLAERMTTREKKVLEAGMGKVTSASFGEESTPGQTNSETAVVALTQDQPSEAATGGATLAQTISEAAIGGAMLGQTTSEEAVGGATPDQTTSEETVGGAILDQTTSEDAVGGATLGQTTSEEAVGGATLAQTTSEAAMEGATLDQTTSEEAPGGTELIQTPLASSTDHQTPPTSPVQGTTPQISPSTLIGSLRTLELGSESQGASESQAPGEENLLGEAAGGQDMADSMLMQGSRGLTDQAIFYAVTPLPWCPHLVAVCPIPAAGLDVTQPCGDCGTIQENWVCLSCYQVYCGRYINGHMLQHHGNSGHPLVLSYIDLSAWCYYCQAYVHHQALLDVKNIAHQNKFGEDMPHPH

IKZF1/3 = assay: Western blot of IKZFs in MM1S cells; assay type: cell-based, human
Experimental: FIGS. 10A and 10B are western blot analysis of MM1S cells treated with selected candidates from C4-lined series (FIG. 10A) and C5-lined series (FIG. 10B) for 6 h.
FIGS. 12A, 12B, and 12C are a series of western blots showing that degrader 12d selectively promotes HDAC6 degradation in MM1S cells.
As discussed before, pomalidomide and its analogues are known to activate CRBN's E3 ligase activity for the degradation of IKZFs. […] IKZFs regulate the expression of interferon regulatory factor 4 (IRF4) and c-Myc to affect the proliferation of multiple myeloma (MM). […] PROTACs with IKZF degradation activity have been reported in a number of cases and the IKZFs are often considered as “off-targets” during the development of these PROTACs. The results presented here indicate that the IKZF degradation activity can be impacted by the linker position and the functional group next to the phthalimide ring. In the studies, the triazole ring linked to C4 position likely contributed to the induced interaction between CRBN and IKZFs.
To evaluate the activity and selectivity of 12d, a full dose response experiment was performed with compound concentrations ranging from 0.3 nM to 10 μM in MM1S cells (FIG. 12A) for several HDACs, IKZFs, and Ac-tubulin. […] Degrader 12d reduced HDAC6 protein content at as low as 3 nM and achieved maximal effects around 30 nM. […] See Douglass et al. 2013, supra. The degradation of IKZFs started from 30 nM and was dose-dependent. It is interesting to see the more efficient degradation of HDAC6, which requires the formation of ternary complex, than that of IKZFs, which only requires the formation of binary complex. In addition to the distinct mechanism, the different turnover rates of HDAC6 and IKZFs may also contribute to the observed results. The acetylated tubulin level was also dose-dependent. At higher concentrations (3 μM and 10 μM), tubulin acetylation was not […] in response to recovered HDAC6 expression by “hook effect”. The elevated tubulin acetylation at higher concentrations was likely due to the combination of HDAC6 degradation and HDAC6 inhibition.
To probe the efficiency of 12d, MM1S was treated with 100 nM 12d and the change of HDAC6 protein level was monitored by time. The HDAC6 degradation started around 1 h and reached maximal degradation effect at 4 h. The degradation of IKZFs was only observed after 4 h. Meanwhile, HDAC1 was not affected and the acetylation of tubulin was accumulated by time. […] HDAC6 expression was monitored for 48 h. […]
When the cells reached 90% confluence, they were harvested and plated 1×10^6 cells per well in 6-well plate. […] Protein concentration was measured by using the Pierce BCA protein assay (Thermo Fisher Scientific). […]

Row | Compound | DC50 (HDAC6; read-out: DC50 (Part 2)) [nM] | Dmax (HDAC6; MM1.S, read-out: Dmax (Part 2)) [%] | IKZF3 recovery after wash-out (IKZF1/3; 100 nM for 6 h, washed with PBS, after 12 h) | induced degradation of IKZF1/3 (IKZF1/3; 100 nM, 6 h, MM1S) | time after which degradation of IKZFs was observed (IKZF1/3; 100 nM, MM1S) [h] | concentration from which degradation of IKZFs started (IKZF1/3; 12d dose response 0.3 nM to 10 μM, MM1S) [nM]
1 | CCCCN(Cc1ccc(C(=O)NO)cc1)C(=O)Nc1ccc(OCCCCCn2cc(CNc3cccc4c3C(=O)N(C3CCC(=O)NC3=O)C4=O)nn2)cc1 (stereo not drawn) [Compound 2] | 2.2 | 85.6 |  |  |  | 
2 | CCCCN(Cc1ccc(C(=O)NO)cc1)C(=O)Nc1ccc(OCCCCCn2cc(CNc3cccc4c3C(=O)N(C3CCC(=O)NC3=O)C4=O)nn2)cc1 (stereo not drawn) [Compound 12d, 4-((1-butyl-3-(4-((5-(4-(((2-(2,6-dioxopiperidin-3-yl)-1,3-dioxoisoindolin-4-yl)amino)methyl)-1H-1,2,3-triazol-1-yl)pentyl)oxy)phenyl)ureido)methyl)-N-hydroxybenzamide] |  |  | quickly recovered | retained the induced degradation | > 4 | ≥ 30
